{"source": "patent US9393250B2", "about": "“Phthalocyanine compounds useful as RecA inhibitors and methods of using same” (University of Saskatchewan, priority 2012, dated 2016)", "key": {"[1]": {"tested_on": "Pseudomonas aeruginosa ATCC27853", "experiment": "Antibiotic sensitivity assay (CFUs/ml), P. aeruginosa", "assay_type": "cell-based", "details": "compound 25 μM; ciprofloxacin 6.5 μM", "experimental": "(§1) Bacterial cultures were diluted to 10^5 cells/mL in LB broth (ATCC25922) or MH broth (ATCC27853, ATCC29212, ATCC29213). Antibiotics and/or phthalocyanines were added at indicated concentrations and the culture was incubated at 37° C. Samples were collected at 0, 24, 48, and 72 hours and plated on LB agar (ATCC25922) or tryptic soy blood agar (ATCC27853, ATCC29212, ATCC29213) to determine CFUs/ml.\n(§2) To confirm that the activity of 4,4-Fe-PcTs was not specific to the gram-negative ATCC25922 E. coli, the ability of 4,4-Fe-PcTs to potentiate the activity of ciprofloxacin in another gram-negative (Pseudomonas aeruginosa ATCC27853) strain and two gram-positive (Staphylococcus aureus ATCC29213 and Enterococcus faecalis ATCC29212) strains was evaluated."}, "[2]": {"tested_on": "Staphylococcus aureus ATCC29213", "experiment": "Antibiotic sensitivity assay (CFUs/ml), S. aureus", "assay_type": "cell-based", "details": "compound 25 μM; ciprofloxacin 6.5 μM", "experimental": "as §1, §2"}, "[3]": {"tested_on": "Enterococcus faecalis ATCC29212", "experiment": "Antibiotic sensitivity assay (CFUs/ml), E. faecalis", "assay_type": "cell-based", "details": "compound 25 μM; ciprofloxacin 6.5 μM", "experimental": "as §1, §2"}, "ATCC25922 cells": {"tested_on": "ATCC25922 cells", "experiment": "Hydroxyl radical production (HPF, flow cytometry)", "assay_type": "cell-based, Escherichia coli", "details": "4,4-Fe-PcTs 25 μM; ciprofloxacin 40 nM; three hours", "experimental": "To confirm that 4,4-Fe-PcTs inhibited the SOS response by a mechanism independent of blocking hydroxyl radical production, the ability of 4,4-Fe-PcTs to decrease hydroxyl radical levels in the presence of bactericidal antibiotics was assayed. Hydroxyphenyl fluorescein was used to measure hydroxyl radical formation in bacteria. Hydroxyl radical production was measured using flow cytometry with […] fluorescein (HPF, Invitrogen) as described previously. ATCC25922 cells were grown to OD600 of 0.3. For cultures treated with 4,4-Fe-PcTs, the 4,4-Fe-PcTs was added to give a concentration of 25 μM and the culture was incubated for three hours at 37° C. […] Samples (˜10^6 cells) were taken immediately before the addition of antibiotics (time zero) and every hour for three hours. The samples were washed once in PBS, and resuspended in PBS prior to analysis by flow cytometry. Hydroxyl radical production was monitored using a flow cytometer (Beckman Coulter, Inc.) with a 488 nm argon laser and a 515-545 nm emission. Flow cytometry data were analyzed using Flowjo (Tree Star, Inc.)."}, "E. coli ATCC25922": {"tested_on": "E. coli ATCC25922", "experiment": "Filamentation assay", "assay_type": "cell-based, Escherichia coli", "details": "4,4-Fe-PcTs 25 μM; CFX 40 nM; three hours", "experimental": "Overnight cultures of E. coli ATCC25922 were grown in LB at 37° C. […] The cells were stained using the standard Gram staining technique and imaged using light microscopy at 100× magnification."}, "EcRecA": {"target": "EcRecA (Escherichia coli, UniProt P0A7G6)", "sequence (P0A7G6 whole entry)": "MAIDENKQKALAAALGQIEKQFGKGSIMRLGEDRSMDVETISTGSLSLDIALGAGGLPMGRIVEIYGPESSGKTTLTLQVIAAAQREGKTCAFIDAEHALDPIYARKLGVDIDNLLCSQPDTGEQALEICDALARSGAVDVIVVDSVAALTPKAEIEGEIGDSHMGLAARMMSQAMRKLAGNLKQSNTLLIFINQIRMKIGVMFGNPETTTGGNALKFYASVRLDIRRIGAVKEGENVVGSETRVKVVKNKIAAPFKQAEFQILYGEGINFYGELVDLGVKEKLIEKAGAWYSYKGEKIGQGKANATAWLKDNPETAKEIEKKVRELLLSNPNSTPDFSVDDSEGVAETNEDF", "details": "in presence of ATPγS", "experimental": "EcRecA (5 μM) was incubated with indicated concentrations of 4,4-Fe-PcTs or 3,4-Cu-PcTs in strand exchange buffer (2 mM ATP-γ-S(Sigma-Aldrich), 10 mM MgAc2, 100 mM KAc, 50 mM Hepes-Tris buffer at pH 7.6, 0.1% v/v 2-mercaptoethanol) for 10 minutes at 37° C. FAM43 (0.35 μM) was added and the reaction was incubated for 2 minutes. The reaction was started by the addition of 0.35 μM of the dsDNA substrate (annealing product of equimolar oligonucleotides 45A and 55A). The reaction was stopped at 30 minutes by adding EDTA to a final concentration of 20 mM and trypsin to a final concentration of 1 μg/μl. After 10 minutes, 10 μl of the reaction was mixed with 5 μl of loading buffer (30% glycerol and 0.1% bromophenol blue) and products were resolved using a 20% native acrylamide gel. The fluorescence emission in the gel was recorded using a Kodak GelLogic 200 system."}, "EcRecA / EcLexA": {"target": "EcRecA / EcLexA (Escherichia coli, UniProt P0A7G6)", "sequence (P0A7G6 whole entry)": "as above", "details": "in presence of ATPγS", "experimental": "The LexA cleavage reaction (10 μl) contained 1 μM poly-(dT)45, 2 μM EcRecA, 10 μM EcLexA, 0.1 mM ATP-γ-S, 20 mM MgAc2, 50 mM Hepes-Tris at pH 7.6 and indicated concentrations of 4,4-Fe-PcTs or 3,4-Cu-PcTs. The reaction was incubated for 120 minutes at 21° C. and stopped by the addition of 5 μl of loading buffer (30% glycerol, 10% SDS, 0.2 M Tris-HCl at pH 6.8, 0.1% v/v 2-mercaptoethanol and 0.1% w/v bromophenol blue). The products were resolved using a 13% SDS-polyacrylamide gel. The proteins were stained with Coomassie Blue-R250."}}, "data": [{"substance": "iron (III) phthalocyanine-4,4′,4″,4′″-tetrasulfonic acid [4,4-Fe-PcTs]", "values": [{"measurement": "potentiation of ciprofloxacin activity", "setting": "[1]", "result": "potentiated the activity of ciprofloxacin"}, {"measurement": "potentiation of ciprofloxacin activity", "setting": "[2]", "result": "potentiated the activity of ciprofloxacin"}, {"measurement": "potentiation of ciprofloxacin activity", "setting": "[3]", "result": "potentiated the activity of ciprofloxacin"}, {"measurement": "effect on ciprofloxacin-induced hydroxyl radicals", "setting": "ATCC25922 cells", "result": "did not alter"}, {"measurement": "effect on ciprofloxacin-induced in vitro filamentation", "setting": "E. coli ATCC25922", "result": "reduced the ability of ciprofloxacin to induce"}, {"measurement": "inhibition of DNA strand-exchange", "setting": "EcRecA", "result": "inhibited"}, {"measurement": "inhibition of LexA cleavage", "setting": "EcRecA / EcLexA", "result": "inhibited"}]}]}
